We go through eight compounds from PubChem BioAssay (NCI).

One may read the TGI as the concentration at which net growth stops. Read a low TGI as greater sensitivity of the cells. By GI50 is commonly meant the concentration at which growth is held to half of that of the control.

Where “and” joins values, the source holds several entries; their conditions need not be identical. Identical values can stand only once.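 Interpolation was linear, between the two tested concentrations surrounding the appropriate level; five concentrations were tested over 48 hours in 96-well plates. GI50 marks 50% less growth. TGI denotes the concentration required for complete inhibition of growth.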

Some test systems named below: A549 NSCLC; BT-549 breast; CCRF-CEM leukemia; HCC-2998 colon; HCT-15 colon; HOP-92 NSCLC; HT29 colon; LOX IMVI melanoma; MALME-3M melanoma; SK-MEL-5 melanoma.
Common to all, as to assay: DTP human tumour cell line panel, 48 h

As for `N#Cc1c(-c2nc3ccccc3s2)c(=O)oc2cc(O)ccc12`, the TGI is more than 100000 nM in the assay with A549 NSCLC; 62800 nM with BT-549 breast; more than 100000 nM in the assay on CCRF-CEM leukemia; more than 100000 nM with HCC-2998 colon; more than 100000 nM in the assay with HCT-15 colon; 46300 nM in the assay on HOP-92 NSCLC. For the same compound, the TGI was more than 100000 nM in the assay with HT29 colon, more than 100000 nM with LOX IMVI melanoma, 95900 nM in the assay with MALME-3M melanoma and 69800 nM in the assay with SK-MEL-5 melanoma.

For the compound `CNC(=O)c1cc(OC2CCC(NC(=O)Nc3ccc(Cl)c(C(F)(F)F)c3)CC2)ccn1` (centres undefined), the GI50 was 4530 nM with A549 NSCLC; 7800 nM in the assay with BT-549 breast; 4410 nM in the assay on CCRF-CEM leukemia; 7000 nM in the assay with HCC-2998 colon; 6170 nM in the assay on HCT-15 colon; 6800 nM in the assay with HOP-92 NSCLC. Also, the GI50 was 4250 nM with HT29 colon, 4960 nM in the assay on LOX IMVI melanoma, 9640 nM in the assay with MALME-3M melanoma and 3070 nM with SK-MEL-5 melanoma. Also, the TGI with A549 NSCLC is 26600 nM; in the assay on BT-549 breast it was 23600 nM; in the assay on CCRF-CEM leukemia, more than 100000 nM; in the assay on HCC-2998 colon, 19200 nM; with HCT-15 colon, 23600 nM; in the assay with HOP-92 NSCLC it was 27100 nM. The TGI with HT29 colon turned out to be 16200 nM; in the assay with LOX IMVI melanoma, 22200 nM; with MALME-3M melanoma, 34300 nM; in the assay with SK-MEL-5 melanoma, 10900 nM.

On to `Cc1ccc(CNc2c3ccccc3nc3ccccc23)cc1`, for which the GI50 with A549 NSCLC is 1940 nM; with BT-549 breast, 2430 nM; with CCRF-CEM leukemia, 2480 nM; in the assay with HCC-2998 colon, 1720 nM; in the assay on HCT-15 colon it was 1800 nM; with HOP-92 NSCLC, 1360 nM. The GI50 in the assay with HT29 colon was 2080 nM; with LOX IMVI melanoma, 1480 nM; in the assay on MALME-3M melanoma, 1660 nM; with SK-MEL-5 melanoma it was 1660 nM. The TGI in the assay on A549 NSCLC came to 5050 nM; in the assay with BT-549 breast, 6340 nM; with CCRF-CEM leukemia, 12600 nM; with HCC-2998 colon it was 3740 nM; with HCT-15 colon it was 4420 nM; in the assay on HOP-92 NSCLC, 5050 nM. The TGI with HT29 colon was found to be 10700 nM; in the assay on LOX IMVI melanoma, 2840 nM; in the assay with MALME-3M melanoma, 3180 nM; with SK-MEL-5 melanoma, 3060 nM.

Take `COc1ccc2c(c1)[nH]c(=O)c1c3cc(C)c(C)cc3cn21`: the GI50 in the assay on A549 NSCLC is less than 18.5 nM; in the assay on BT-549 breast, 24 nM; in the assay on CCRF-CEM leukemia, less than 14.9 nM; in the assay on HCC-2998 colon, 23.5 nM; with HCT-15 colon, less than 14.2 nM; with HOP-92 NSCLC it was 485 nM. Also, the GI50 with HT29 colon was less than 10 nM; with LOX IMVI melanoma it was less than 14 nM; in the assay with MALME-3M melanoma, 161 nM; in the assay with SK-MEL-5 melanoma, less than 15.8 nM. In addition, the TGI in the assay with A549 NSCLC stood at 1320 nM; with BT-549 breast it was 366 nM; in the assay with HCC-2998 colon, 80.2 nM; in the assay on HCT-15 colon, 363 nM; in the assay on HOP-92 NSCLC it was 2320 nM; in the assay with LOX IMVI melanoma, 1660 nM. For the same compound, the concentration for total growth inhibition (TGI) is 2760 nM in the assay on MALME-3M melanoma and 76.3 nM with SK-MEL-5 melanoma.

With `COc1ccc2nc(N/N=C(\C)c3ccccn3)cc(C)c2c1`, the GI50 is 315 nM in the assay on A549 NSCLC; 168 nM in the assay on BT-549 breast; 67.9 nM in the assay on CCRF-CEM leukemia; 348 nM in the assay with HCC-2998 colon; 91.6 nM with HCT-15 colon; 169 nM with HOP-92 NSCLC. For the same compound, the GI50 in the assay with HT29 colon was 116 nM; with LOX IMVI melanoma it was 236 nM; in the assay on MALME-3M melanoma, 230 nM; with SK-MEL-5 melanoma, 244 nM. For the same compound, the TGI in the assay with A549 NSCLC turned out to be 3240 nM; with BT-549 breast, 1960 nM; in the assay on CCRF-CEM leukemia it was 400 nM; in the assay on HCC-2998 colon, 2060 nM; in the assay on HCT-15 colon, 1650 nM; in the assay on HOP-92 NSCLC, 2550 nM. In addition, the TGI in the assay on LOX IMVI melanoma was 1280 nM; with MALME-3M melanoma it was 697 nM; in the assay with SK-MEL-5 melanoma, 1120 nM.

Consider `CN1CC[C@@H](c2c(O)cc(O)c3c(=O)cc(-c4ccccc4Cl)oc23)[C@@H](O)C1`, for which the GI50 is 79.3 nM and 161 nM with A549 NSCLC; 171 nM and 178 nM with BT-549 breast; 38 nM and 41.2 nM in the assay with CCRF-CEM leukemia; 137 nM and 41.7 nM in the assay on HCC-2998 colon; 47.6 nM with HCT-15 colon; 104 nM in the assay on HOP-92 NSCLC. Besides, the GI50 is 178 nM in the assay with HT29 colon; 28.9 nM in the assay on LOX IMVI melanoma; 166 nM and 144 nM with MALME-3M melanoma; 63.1 nM with SK-MEL-5 melanoma. In addition, the TGI with A549 NSCLC was 33800 nM; in the assay on HCC-2998 colon, 312 nM and 162 nM; with HOP-92 NSCLC it was 517 nM and 1870 nM; with HT29 colon, 24800 nM; in the assay with LOX IMVI melanoma it was more than 100000 nM; with MALME-3M melanoma it was 439 nM and 465 nM. In the assay on SK-MEL-5 melanoma, the TGI is 265 nM and 182 nM.

`O=[N+]([O-])C1C(c2ccccc2)C12c1ccccc1-c1ccccc12` (centres undefined): the GI50 in the assay with A549 NSCLC is 1910 nM; in the assay on BT-549 breast it was 543 nM; in the assay with CCRF-CEM leukemia, 318 nM; in the assay with HCC-2998 colon, 1490 nM; with HCT-15 colon it was 546 nM; with HOP-92 NSCLC, 250 nM. The GI50 was 349 nM with HT29 colon, 416 nM in the assay with LOX IMVI melanoma, 15000 nM in the assay with MALME-3M melanoma and 515 nM in the assay with SK-MEL-5 melanoma. The TGI in the assay with A549 NSCLC was more than 100000 nM; in the assay on BT-549 breast, 7320 nM; in the assay on CCRF-CEM leukemia, 4220 nM; with HCC-2998 colon it was 6430 nM; with HCT-15 colon it was 30400 nM; with HOP-92 NSCLC it was 2050 nM. In addition, the TGI turned out to be 15500 nM in the assay on HT29 colon, 2470 nM in the assay on LOX IMVI melanoma, 37800 nM with MALME-3M melanoma and 9480 nM in the assay on SK-MEL-5 melanoma.

In the case of `COc1cccc(C2CC(C)(N3CCCC3)Oc3cc4c(cc32)OCO4)c1O` (centres undefined), the TGI in the assay on A549 NSCLC was more than 100000 nM; in the assay with BT-549 breast, 87700 nM; in the assay with CCRF-CEM leukemia, more than 83300 nM; in the assay on HCC-2998 colon, 48200 nM; in the assay with HCT-15 colon, 70000 nM; with HOP-92 NSCLC, more than 100000 nM. Moreover, the TGI was 45300 nM in the assay on HT29 colon, more than 94500 nM in the assay on LOX IMVI melanoma, more than 100000 nM in the assay on MALME-3M melanoma and more than 62400 nM with SK-MEL-5 melanoma.
